Literature values, collected in patent US8183241B2, “2-oxo-1-pyrrolidine derivatives” (UCB Pharma, S.A., priority 2005, dated 2012).

Settings: Eur. J. Pharmacol. (1992), 222, 193-203

SMILES | activity in the treatment of epilepsy
CC[C@@H](C(N)=O)N1CCCC1=O [Levetiracetam, (S)-α-ethyl-2-oxo-1-pyrrolidine acetamide] | effective in the treatment of epilepsy
CC[C@H](C(N)=O)N1CCCC1=O [(R)-α-ethyl-2-oxo-1-pyrrolidine acetamide] | completely lacks activity
